Measurements as given in PubChem BioAssay AID330 (DTP/NCI, 2004).
Several values for one entry are separate records, joined by “and”; a condition that tells them apart may be missing. Identical values can stand only once. Toxic doses and inconclusive results are not listed.

Test system: P388 leukemia ip, CD2F1 mice, survival T/C
Assay: NCI In Vivo Anticancer Drug Screen. Data for tumor model P388 Leukemia (intraperitoneal) in CD2F1 (CDF1) mice
Details: endpoint: median survival time, higher = longer survival
In short: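 Mice carrying the transplanted tumor received test compound or vehicle. Survival was recorded in each group, and the value is the treated-group measurement divided by that of the vehicle-treated control group.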

[1] = dose: 100.0 mg/kg/injection, schedule: Q01DX001 (ip), vehicle: Klucel (hydroxypropylcellulose) (HPC)
[2] = dose: 200.0 mg/kg/injection, schedule: Q01DX001 (ip), vehicle: Klucel (hydroxypropylcellulose) (HPC)
[3] = dose: 400.0 mg/kg/injection, schedule: Q01DX001 (ip), vehicle: Klucel (hydroxypropylcellulose) (HPC)
[4] = dose: 50.0 mg/kg/injection, schedule: Q01DX005 (ip), vehicle: Klucel (hydroxypropylcellulose) (HPC)
[5] = dose: 100.0 mg/kg/injection, schedule: Q01DX005 (ip), vehicle: Klucel (hydroxypropylcellulose) (HPC)
[6] = dose: 200.0 mg/kg/injection, schedule: Q01DX005 (ip), vehicle: Klucel (hydroxypropylcellulose) (HPC)
[7] = dose: 12.5 mg/kg/injection, schedule: Q01DX009 (ip), vehicle: saline with Tween-80
[8] = dose: 25.0 mg/kg/injection, schedule: Q01DX009 (ip), vehicle: saline with Tween-80
[9] = dose: 50.0 mg/kg/injection, schedule: Q01DX009 (ip), vehicle: saline with Tween-80

Which results are given for `CNC(=O)OCc1c(Cl)nc2sccn12`?
T/C [1]: 109 % of control; T/C [2]: 100 % of control; T/C [3]: 100 % of control

With `Cc1ccc2c(c1)sc1n[nH]c(=S)n12` as the molecule, how does the T/C (dose: 50.0 mg/kg/injection, schedule: Q01DX009 (ip), vehicle: Klucel (hydroxypropylcellulose) (HPC)) read?
Its T/C is 100 % of control.

What about the T/C (dose: 100.0 mg/kg/injection, schedule: Q01DX009 (ip), vehicle: Klucel (hydroxypropylcellulose) (HPC)) of the same molecule?
The T/C was 100 % of control.

And the T/C (dose: 200.0 mg/kg/injection, schedule: Q01DX009 (ip), vehicle: Klucel (hydroxypropylcellulose) (HPC))?
Its T/C is 100 % of control.

For `COc1cc(C2OCC3C(c4cc(OC)c(OC)c(OC)c4)OCC23)cc(OC)c1OC` (configuration not stated), which T/C [4] is on record?
Its T/C is 102 % of control.

And the T/C [5]?
The T/C was 100 % of control.

What about the T/C [6] of the same molecule?
Its T/C is 102 % of control.

For `COc1ccccc1-c1cn(O)c(=N)c(C#N)n1`, which T/C (dose: 6.25 mg/kg/injection, schedule: Q01DX009 (ip), vehicle: saline with Tween-80) is on record?
Its T/C is 89 % of control.

And the T/C [7]?
Its T/C is 94 % of control.

What about the T/C [8] of the same molecule?
The T/C was 94 % of control.

How did the T/C (dose: 50.0 mg/kg/injection, schedule: Q01DX009 (ip), vehicle: saline) turn out when `CCN(CC)CCNc1ccc(C)c2sc3ccccc3c(=O)c12` (tested in a mixture with another compound) was run?
The T/C was 160 % of control.

What about the T/C (dose: 100.0 mg/kg/injection, schedule: Q01DX009 (ip), vehicle: saline) of the same molecule?
Its T/C is 185 % of control.

And the T/C (dose: 200.0 mg/kg/injection, schedule: Q04DX003 (ip), vehicle: saline)?
The T/C was 161 % of control.

And the T/C (dose: 300.0 mg/kg/injection, schedule: Q04DX003 (ip), vehicle: saline)?
The T/C was 95 % of control.

What does the source list for `FC(F)(F)C1=C(C(F)(F)F)OP2(Oc3ccccc3)(O1)Oc1ccccc1O2`?
T/C (dose: 25.0 mg/kg/injection, schedule: Q04DX003 (ip), vehicle: suspension in saline): 102 % of control; T/C (dose: 50.0 mg/kg/injection, schedule: Q04DX003 (ip), vehicle: suspension in saline): 101 % of control; T/C (dose: 100.0 mg/kg/injection, schedule: Q04DX003 (ip), vehicle: suspension in saline): 97 % of control

What does the source list for `CSC(=S)n1nc(C)c(N=Nc2ccccc2[N+](=O)[O-])c1C`?
T/C [1]: 111 % of control; T/C [2]: 96 % of control; T/C [3]: 106 % of control

`Cc1cc(O)c(C(=O)O)c2c1CCC(C1(C)CO1)C2` (configuration not stated) was tested. Which T/C (dose: 1.56 mg/kg/injection, schedule: Q01DX005 (ip), vehicle: Klucel (hydroxypropylcellulose) (HPC)) did it give?
Its T/C is 100 % of control.

And the T/C (dose: 3.12 mg/kg/injection, schedule: Q01DX005 (ip), vehicle: Klucel (hydroxypropylcellulose) (HPC))?
The T/C was 101 % of control.

What about the T/C (dose: 6.25 mg/kg/injection, schedule: Q01DX005 (ip), vehicle: Klucel (hydroxypropylcellulose) (HPC)) of the same molecule?
The T/C was 100 % of control.

And the T/C (dose: 12.5 mg/kg/injection, schedule: Q01DX005 (ip), vehicle: Klucel (hydroxypropylcellulose) (HPC))?
The T/C was 105 % of control.

What about the T/C (dose: 25.0 mg/kg/injection, schedule: Q01DX005 (ip), vehicle: Klucel (hydroxypropylcellulose) (HPC)) of the same molecule?
The T/C was 107 % of control.

How did the T/C [9] turn out when `CC/C(=N\NC(=S)SC)c1ccccc1` was run?
Its T/C is 91 % of control.

And the T/C (dose: 100.0 mg/kg/injection, schedule: Q01DX009 (ip), vehicle: saline with Tween-80)?
The T/C was 100 % of control.

What about the T/C (dose: 200.0 mg/kg/injection, schedule: Q01DX009 (ip), vehicle: saline with Tween-80) of the same molecule?
The T/C was 97 % of control.

What does the source list for `COc1ccc(N(C)C(=S)c2ccccc2)cc1`?
T/C [4]: 103 % of control; T/C [5]: 96 % of control; T/C [6]: 92 % of control

Which results are given for `COc1ccc2c(c1)NC(c1ccc(C(N)=S)cc1)N2` (configuration not stated)?
T/C (dose: 100.0 mg/kg/injection, schedule: Q04DX002 (ip), vehicle: saline with Tween-80): 89 % of control; T/C (dose: 200.0 mg/kg/injection, schedule: Q04DX002 (ip), vehicle: saline with Tween-80): 87 % of control; T/C (dose: 400.0 mg/kg/injection, schedule: Q04DX002 (ip), vehicle: saline with Tween-80): 88 % of control

With `COc1cc2c(cc1OC)C1CC(OC(=O)c3ccccc3)(c3nccc4cc(OC)c(OC)cc34)CCN1CC2` (configuration not stated) as the molecule, how does the T/C [7] read?
Its T/C is 97 % of control.

And the T/C [8]?
Its T/C is 93 % of control.

What about the T/C [9] of the same molecule?
The T/C was 95 % of control and 97 % of control.

For `c1cc2c(cc1NC1=NCCO1)CCC2`, which T/C (dose: 6.25 mg/kg/injection, schedule: Q04DX003 (ip), vehicle: saline with Tween-80) is on record?
The T/C was 100 % of control.

What about the T/C (dose: 12.5 mg/kg/injection, schedule: Q04DX003 (ip), vehicle: saline with Tween-80) of the same molecule?
The T/C was 100 % of control.

What about the T/C (dose: 25.0 mg/kg/injection, schedule: Q04DX003 (ip), vehicle: saline with Tween-80) of the same molecule?
The T/C was 100 % of control.
